Literature values in paper PMC11071479 (bioRxiv, 2024).

Target: T1, MCT4 (Homo sapiens, UniProt O15427)
T1 sequence (O15427 2-465): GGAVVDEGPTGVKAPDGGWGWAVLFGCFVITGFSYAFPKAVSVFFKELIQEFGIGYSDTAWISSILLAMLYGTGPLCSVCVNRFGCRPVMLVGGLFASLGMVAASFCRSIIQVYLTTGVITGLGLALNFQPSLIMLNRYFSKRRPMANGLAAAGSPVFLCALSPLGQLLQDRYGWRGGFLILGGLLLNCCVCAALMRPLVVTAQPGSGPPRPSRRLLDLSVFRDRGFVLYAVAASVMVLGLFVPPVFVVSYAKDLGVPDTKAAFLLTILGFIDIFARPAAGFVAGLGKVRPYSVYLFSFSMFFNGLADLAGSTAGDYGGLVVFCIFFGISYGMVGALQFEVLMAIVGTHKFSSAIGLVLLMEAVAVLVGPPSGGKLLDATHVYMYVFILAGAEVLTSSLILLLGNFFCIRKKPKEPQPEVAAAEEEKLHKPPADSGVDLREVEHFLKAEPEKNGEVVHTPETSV
Test: MCT4 inhibition IC50 stated without citation
Format: cell-based

IC50: ~2 nM
Substance: VB253
